Assay results published in BigSolDB 2.1.

CS(=O)(=O)c1ccc(F)cc1
Conditions | solubility (mole fraction)
in acetone, 290.53 K | 0.226
in acetone, 298.3 K | 0.282
in acetone, 304.2 K | 0.331
in chloroform, 288.4 K | 0.229
in chloroform, 293.25 K | 0.262
in chloroform, 299.93 K | 0.312
in chloroform, 305 K | 0.352
in ethanol, 291.07 K | 0.0162
in ethanol, 297.34 K | 0.0302
in ethanol, 303.07 K | 0.0471
in ethanol, 308.66 K | 0.0744
in ethyl acetate, 293.28 K | 0.189
in ethyl acetate, 299.67 K | 0.23
in ethyl acetate, 305.75 K | 0.278
in ethyl acetate, 313.05 K | 0.35
in toluene, 290.84 K | 0.0422
in toluene, 298.86 K | 0.0744
in toluene, 304.15 K | 0.105
in toluene, 306.87 K | 0.125
